Source: patent US20240002846A1, “COMPOSITIONS AND METHODS FOR THE DIAGNOSIS AND TREATMENT OF ITCH” (Duke University, priority 2020, published 2024)
Where “and” joins values, the source holds several entries; their conditions need not be identical. Equal entries are not always repeated.

How the values were obtained:
human keratinocytes = test: Ca2+ imaging in cultured human keratinocytes; assay type: cell-based; settings: inhibitor 10 μM
Method: In brief, surgically discarded foreskin samples, obtained from Duke Children's Hospital in accordance to institutionally approved IRB protocol, were incubated with Dispase (Gibco, Gaithersburg, MD, 4 U/mL) for 12-16 h at 4° C. followed by 0.05% trypsin (Gibco, Gaithersburg, MD) for 10-20 min at 37° C. Cells were maintained in keratinocyte serum-free media (Invitrogen, Waltham, MA) with 5% CO2 at 37° C. and used at passage 2-3.
In vitro and ex vivo Ca^2+ imaging. […] Ca^2+ imaging of cultured cells in response to chemicals was conducted after loading with 5 μM Fura2-AM (Invitrogen, Waltham, MA) for 45 min after a ratiometric Ca^2+-imaging protocol with 340/380-nm blue light for dual excitation. Ratios of emissions were acquired at 0.5 Hz. ΔR/R0 was determined as the fraction of the increase of a given ratio over baseline ratio divided by baseline ratio. […] Control cells received vehicles.

hTRPV4-R746G = target: T1, hTRPV4-R746G (Homo sapiens, UniProt Q9HBA0, R746G); test: Inside-out patch-clamp, hTRPV4-R746G; assay type: biochemical; settings: 5 μM LPC 18:1
T1 construct: expressed in transfected cells; host or cells: HEK293
T1 sequence (Q9HBA0 whole entry R746G): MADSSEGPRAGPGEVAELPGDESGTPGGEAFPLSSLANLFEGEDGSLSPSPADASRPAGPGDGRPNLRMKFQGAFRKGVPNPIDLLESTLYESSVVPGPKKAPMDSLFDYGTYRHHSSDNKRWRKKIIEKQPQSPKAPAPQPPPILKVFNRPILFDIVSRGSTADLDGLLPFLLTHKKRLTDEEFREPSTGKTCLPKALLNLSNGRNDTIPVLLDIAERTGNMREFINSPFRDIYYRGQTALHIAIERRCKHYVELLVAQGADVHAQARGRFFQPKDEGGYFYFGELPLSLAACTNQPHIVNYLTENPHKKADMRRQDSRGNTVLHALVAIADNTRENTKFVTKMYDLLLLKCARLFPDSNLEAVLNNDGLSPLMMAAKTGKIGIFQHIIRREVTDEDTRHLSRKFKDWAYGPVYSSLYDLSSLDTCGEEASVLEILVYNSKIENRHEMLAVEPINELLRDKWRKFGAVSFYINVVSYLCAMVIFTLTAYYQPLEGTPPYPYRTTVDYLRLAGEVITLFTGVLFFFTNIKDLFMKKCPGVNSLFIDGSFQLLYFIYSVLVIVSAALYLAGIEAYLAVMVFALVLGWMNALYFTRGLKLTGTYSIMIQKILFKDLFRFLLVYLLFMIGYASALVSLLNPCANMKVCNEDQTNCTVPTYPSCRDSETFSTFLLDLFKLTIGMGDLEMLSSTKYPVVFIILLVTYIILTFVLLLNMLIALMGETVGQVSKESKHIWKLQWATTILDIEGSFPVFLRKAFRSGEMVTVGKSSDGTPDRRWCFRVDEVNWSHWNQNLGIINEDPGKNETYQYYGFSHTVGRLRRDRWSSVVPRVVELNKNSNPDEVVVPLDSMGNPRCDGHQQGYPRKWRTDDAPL
Method: (§1) Cell culture and transfection. HEK293 cells (ATCC® CRL-1573) were cultured on poly-D-lysine coated coverslips in 24-well plate containing DMEM media with high-Glucose (Gibco, Gaithersburg, MD) supplemented with 10% fetal bovine serum (FBS, HyClone Laboratories, Logan, UT) and 100 U/mL of penicillin/streptomycin (Gibco, Gaithersburg, MD). Cell cultures were maintained with 5% of CO2 in a humidified incubator at 37° C. HEK cells were transfected with rat or human wild type or mutant TRPV4 channels with EGFP or YFP coupled to their C-termini (1.5 μg of plasmid for excised patch clamp and Ca^2+ imaging and 200 ng for single-channel experiments). […]
(§2) Electrophysiology. Currents were recorded using the inside-out configuration of the patch-clamp technique (Hamill et al. Pflugers Arch. 1981, 391, 85-100). […] Mean current values in response to GSK1016790A or LPC 18:1 were measured after channel activation had reached the steady-state (˜3 min). […] Currents were low-pass filtered at 2 kHz and sampled at 10 kHz with an EPC 10 amplifier (HEKA Elektronik) and were plotted and analyzed with Igor Pro (Wavemetrics Inc.).

rTRPV4 = rTRPV4 (Rattus norvegicus, UniProt Q9ERZ8); test: Inside-out patch-clamp, HEK cells transfected with rTRPV4; assay type: biochemical; set-up: expressed in transfected cells; host or cells: HEK293; settings: 5 μM LPC 18:1, WT-rTRPV4, inside-out patches
Sequence of rTRPV4 (Q9ERZ8 whole entry): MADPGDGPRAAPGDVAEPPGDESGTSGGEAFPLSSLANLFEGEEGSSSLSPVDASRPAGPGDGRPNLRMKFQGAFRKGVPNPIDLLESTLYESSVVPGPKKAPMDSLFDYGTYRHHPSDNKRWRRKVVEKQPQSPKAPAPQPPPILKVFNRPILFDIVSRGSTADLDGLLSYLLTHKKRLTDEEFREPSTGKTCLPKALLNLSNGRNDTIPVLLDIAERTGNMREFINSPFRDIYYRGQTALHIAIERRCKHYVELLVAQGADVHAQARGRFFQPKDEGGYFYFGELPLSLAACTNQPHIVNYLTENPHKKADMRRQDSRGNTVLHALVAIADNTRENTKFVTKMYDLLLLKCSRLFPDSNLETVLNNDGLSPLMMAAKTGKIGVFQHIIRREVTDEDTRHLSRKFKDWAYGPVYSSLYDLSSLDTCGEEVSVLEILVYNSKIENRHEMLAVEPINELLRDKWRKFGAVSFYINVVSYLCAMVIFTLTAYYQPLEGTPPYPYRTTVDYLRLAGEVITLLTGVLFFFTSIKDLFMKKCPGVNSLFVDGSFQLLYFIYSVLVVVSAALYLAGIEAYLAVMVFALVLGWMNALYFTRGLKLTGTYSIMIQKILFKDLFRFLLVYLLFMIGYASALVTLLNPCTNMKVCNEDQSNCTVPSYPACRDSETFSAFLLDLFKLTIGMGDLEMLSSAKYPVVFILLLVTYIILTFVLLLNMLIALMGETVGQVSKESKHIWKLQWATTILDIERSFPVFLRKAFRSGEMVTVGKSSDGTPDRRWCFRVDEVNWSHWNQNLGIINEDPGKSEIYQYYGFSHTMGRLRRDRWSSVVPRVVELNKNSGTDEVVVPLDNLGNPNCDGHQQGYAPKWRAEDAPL
Method: as §1, §2

hTRPV4-121AAWAA125 = target: T2, hTRPV4-121AAWAA125 (Homo sapiens, UniProt Q9HBA0, K121A/K125A/R122A/R124A); test: Inside-out patch-clamp, hTRPV4-121AAWAA125; assay type: biochemical; settings: 5 μM LPC 18:1
T2 construct: expressed in transfected cells; host or cells: HEK293
T2 sequence (Q9HBA0 whole entry K121A/R122A/R124A/K125A): as the sequence (Q9HBA0 whole entry R746G) above, with K121A, R122A, R124A, K125A, G746R counted along it
Method: as §1, §2

[1] = tested on: human TRPV4 mutations (R746C, R746G, R746D, K754G, R757G, R774G, and W776G); test: Ca2+ imaging in HEK cells transfected with human TRPV4 mutations; assay type: cell-based
Method: as §1, with “experiments). The jetPEI™ Polyplus transfection reagent (Polyplus Transfection, New York, NY) for electrophysiology or Lipofectamine™ 2000 Reagent (Invitrogen, Waltham, MA) for Ca^2+ imaging were used for transfections per manufacturer's instructions as previously described (Chen et al. Pain 2014, 155, 2662-2672; Morales-Lazaro et al. Nat. Commun. 2016, 7, 13092).” for “experiments).”
In vitro and ex vivo Ca^2+ imaging. […] Ratios of emissions were acquired at 0.5 Hz. ΔR/R0 was determined as the fraction of the increase of a given ratio over baseline ratio divided by baseline ratio. […]

Cc1c(C(=O)Nc2cccc(C(F)(F)F)c2)cc(-c2ccccc2)n1CCCN1CCOCC1 [HC067047]
effect on LPA 18:1 (10 μM) induced Ca2+ signal (human keratinocytes): remained unchanged | effect on LPC (10 μM) induced Ca2+ signal (human keratinocytes): significantly reduced

LPC 18:1
average activation of currents, normalized to 1 μM GSK101 (hTRPV4-R746G): 13±4% | average activation of currents, normalized to 1 μM GSK101 (rTRPV4): 54±4% | average activation of currents, normalized to 1 μM GSK101 (rTRPV4; listed as LPC (18:1)): 54% and ~50% | average activation of currents, normalized to 1 μM GSK101 (hTRPV4-121AAWAA125): 43±4% | Ca2+ signal induced by 10 μM LPC 18:1 in TRPV4 mutants vs hTRPV4 [1]: drastically reduced
